Measured values reported in patent publication US12497370B2, “Isoxazoline derivatives” (Elanco Tiergesundheit AG, priority 2019, dated 2025).
Read-outs that look alike come from different tables or passages of the source.

Legend:
[1] = PK determination following administration to beagle dogs; type: in vivo; settings: dog
Procedure: PK Determination Following Administration to Beagle Dogs
Behavior of single oral or intravenous dose of the desired compound was assessed in beagle dogs. The animals (n=6) received the compound by oral gavage (3 or 10 mg/kg) or intravenous dose (1 or 2 mg/kg). Blood samples were collected predose and at 0.25, 0.5, 1, 2, 4, 8, 24, 48, 72, 96, 168, 336, 504, 672, 1008, 1344, 1680, 2016, 2352, 2688, 2856 and 3024 h postdose. A portion of each whole blood sample was processed to plasma. Test article concentrations in plasma and whole blood were determined using LC-MS/MS.

[2] = tested on: fleas (Ctenocephalides felis); assay: In vitro evaluation of ingestion activity against fleas; settings: flea ingestion test, compound in organic bovine blood (0.5% DMSO), adult fleas, percent mortality between 2 h and 48 h post infestation, read-out: EC50 (the source's name)
Procedure: In Vitro Evaluation of Ingestion Activity Against Fleas (Ctenocephalides felis)
For flea ingestion tests, serial dilutions of the compound stock were performed using DMSO to achieve the desired range for EC50 and EC90 determination. An aliquot of each compound dilution was added to organic bovine blood with a final DMSO concentration of 0.5% and placed in an artificial feeding container. Fipronil is included to serve as a positive control. Ten newly emerged unfed adult fleas, 0-7 days old Ctenocephalides felis, from a laboratory colony, were aspirated into each vial or cage. The cages for flea ingestion assays were held in a temperature-controlled artificial feeding apparatus to allow continual access to organic bovine blood containing the desired concentration of compound. Fresh aliquots of compound-spiked bovine blood were provided daily for the duration of the study. Fleas were evaluated for percent mortality at various time points between 2 h and 48 h post infestation. Fleas showing normal movement and/or jumping ability were considered viable and those showing no movement after tapping the vials were scored as dead.

[3] = in vivo, beagle dogs, single oral gavage (3 or 10 mg/kg) or intravenous dose (1 or 2 mg/kg), LC-MS/MS, read-out: Half-life (converted)
[4] = in vivo, beagle dogs, single oral gavage (3 or 10 mg/kg) or intravenous dose (1 or 2 mg/kg), LC-MS/MS, read-out: Plasma clearance (converted)

Row | Compound | LC50 [2] [µg/mL] | further results
1 | Cc1cc(C2=NOC(c3cc(C(F)(F)F)cc(Cl)c3F)(C(F)(F)F)C2)sc1C(=O)NCC(=O)NCC(F)(F)F (stereo not drawn) [4.1 or 4.2] |  | clearance ([1]; beagle, in vivo): 2.36 mL/h/kg; half-life ([1]; beagle, in vivo): 44 days
2 | O=C(CNC(=O)c1ccc(C2=NOC(c3cc(C(F)(F)F)cc(Cl)c3F)(C(F)(F)F)C2)c2ccccc12)NCC(F)(F)F (stereo not drawn) [2.1 or 2.2] | < 1 | clearance ([1]; beagle, in vivo): 2.31 mL/h/kg; half-life ([1]; beagle, in vivo): 45 days
3 | CS(=O)(=O)CC(=O)N1CC2(C1)OCc1cc(C3=NO[C@](c4cc(C(F)(F)F)cc(C(F)F)c4F)(C(F)(F)F)C3)ccc12 [1.1 or 1.2] | < 3 | clearance ([1]; beagle, in vivo): 2.36 mL/h/kg; half-life ([1]; beagle, in vivo): 36 days
4 | O=C(CNC(=O)c1ccc(C2=NOC(c3cc(Cl)cc(C(F)(F)F)c3)(C(F)(F)F)C2)c2ccccc12)NCC(F)(F)F (stereo not drawn) [afoxolaner, reference compound] |  | half-life [1, 3]: 15.5 days; clearance [1, 4]: 4.96 mL/h/kg
5 | Cc1cc(C2=NO[C@@](c3cc(Cl)c(Cl)c(Cl)c3)(C(F)(F)F)C2)sc1C(=O)NCC(=O)NCC(F)(F)F [lotilaner, reference compound] |  | half-life [1, 3]: 25 days; clearance ([1]; plasma, beagle dogs, single oral gavage (3 or 10 mg/kg) or intravenous dose (1 or 2 mg/kg), LC-MS/MS, read-out: Plasma clearance (converted)): 7.5 mL/h/kg
6 | CS(=O)(=O)CC(=O)N1CC2(C1)OCc1cc(C3=NO[C@@](c4cc(Cl)c(F)c(Cl)c4)(C(F)(F)F)C3)ccc12 [sarolaner, reference compound] |  | half-life [1, 3]: 12 days; clearance [1, 4]: 7.21 mL/h/kg
7 | Cc1cc(C2=NOC(c3cc(C(F)(F)F)cc(Cl)c3F)(C(F)(F)F)C2)ccc1C(=O)NCC(=O)NCC(F)(F)F (stereo not drawn) [3.1 or 3.2] | < 1 | clearance ([1]; beagle, in vivo): 2.55 mL/h/kg; half-life ([1]; beagle, in vivo): 50 days
8 | CCN1C[C@H](NC(=O)c2ccc(C3=NOC(c4cc(C(F)(F)F)cc(Cl)c4F)(C(F)(F)F)C3)cc2C)CC1=O (single isomer, unassigned) [Example 3.87, 4-[(5R or S)-5-[3-chloro-2-fluoro-5-(trifluoromethyl)phenyl]-5-(trifluoromethyl)-4H-isoxazol-3-yl]-N-[(3R)-1-ethyl-5-oxo-pyrrolidin-3-yl]-2-methyl-benzamide] | < 1 | 
9 | CO[C@H]1C[C@@H](NC(=O)c2ccc(C3=NOC(c4cc(C(F)(F)F)cc(Cl)c4F)(C(F)(F)F)C3)cc2C)C1 (mixture of isomers) [Example 3.47, 4-[(5RS)-5-[3-chloro-2-fluoro-5-(trifluoromethyl)phenyl]-5-(trifluoromethyl)-4H-isoxazol-3-yl]-N-(cis-3-methoxycyclobutyl)-2-methyl-benzamide] | < 3 | 
10 | Cc1cc(C2=NOC(c3cc(C(F)(F)F)cc(Cl)c3F)(C(F)(F)F)C2)ccc1C(=O)NCC(=O)NCC1CC1 (racemic) [Example 3.8, N-[2-(cyclopropylmethylamino)-2-oxo-ethyl]-2-methyl-4-[(5RS)-5-[3-chloro-2-fluoro-5-(trifluoromethyl)phenyl]-5-(trifluoromethyl)-4H-isoxazol-3-yl]benzamide] | < 1 | 
11 | Cc1cc(C2=NOC(c3cc(C(F)(F)F)cc(Cl)c3F)(C(F)(F)F)C2)ccc1C(=O)NC1CN(S(=O)(=O)N(C)C)C1 (single isomer, unassigned) [Example 3.66, N-[1-(dimethylsulfamoyl)azetidin-3-yl]-2-methyl-4-[(5R or S)-5-[3-chloro-2-fluoro-5-(trifluoromethyl)phenyl]-5-(trifluoromethyl)-4H-isoxazol-3-yl]benzamide] | < 1 | 
12 | Cc1cc(C2=NOC(c3cc(C(F)(F)F)cc(Cl)c3F)(C(F)(F)F)C2)ccc1C(=O)Nc1cccc(C#N)c1 (single isomer, unassigned) [Example 3.81, N-(3-cyanophenyl)-2-methyl-4-[(5S or R)-5-[3-chloro-2-fluoro-5-(trifluoromethyl)phenyl]-5-(trifluoromethyl)-4H-isoxazol-3-yl]benzamide] | < 3 | 
13 | Cc1cc(C2=NOC(c3cc(Cl)cc(Cl)c3)(C(F)(F)F)C2)ccc1C(=O)NCC(=O)NCC(F)(F)F (stereo not drawn) [fluralaner, reference compound] |  | half-life [1, 3]: 12 to 15 days
14 | Cc1cc(C2=NOC(c3cc(C(F)(F)F)cc(Cl)c3F)(C(F)(F)F)C2)ccc1C(=O)Nc1cnn(CC#N)c1 (single isomer, unassigned) [Example 3.75, N-[1-(cyanomethyl)pyrazol-4-yl]-2-methyl-4-[(5S or R)-5-[3-chloro-2-fluoro-5-(trifluoromethyl)phenyl]-5-(trifluoromethyl)-4H-isoxazol-3-yl]benzamide] | < 3 | 
15 | Cc1cc(C2=NOC(c3cc(C(F)(F)F)cc(Cl)c3F)(C(F)(F)F)C2)ccc1C(=O)NC1CN(S(=O)(=O)C(F)(F)F)C1 (single isomer, unassigned) [Example 3.61, 2-methyl-4-[(5R or S)-5-[3-chloro-2-fluoro-5-(trifluoromethyl)phenyl]-5-(trifluoromethyl)-4H-isoxazol-3-yl]-N-[1-(trifluoromethylsulfonyl)azetidin-3-yl]benzamide] | < 3 | 
16 | Cc1cc(C2=NOC(c3cc(C(F)(F)F)cc(Cl)c3F)(C(F)(F)F)C2)ccc1C(=O)NC1CN(C(N)=O)C1 (single isomer, unassigned) [Example 3.71, 3-[[2-methyl-4-[(5S or R)-5-[3-chloro-2-fluoro-5-(trifluoromethyl)phenyl]-5-(trifluoromethyl)-4H-isoxazol-3-yl]benzoyl]amino]azetidine-1-carboxamide] | < 1 | 
17 | Cc1cc(C2=NO[C@](c3cc(C(F)(F)F)cc(Cl)c3F)(C(F)(F)F)C2)ccc1C(=O)N[C@H]1C[C@@H](C(F)(F)F)C1 (single isomer, unassigned) [Example 3.74, 2-methyl-4-[(5R or S)-5-[3-chloro-2-fluoro-5-(trifluoromethyl)phenyl]-5-(trifluoromethyl)-4H-isoxazol-3-yl]-N-[cis-3-(trifluoromethyl)cyclobutyl] benzamide] | < 1 | 
18 | Cc1cc(C2=NOC(c3cc(C(F)(F)F)cc(Cl)c3F)(C(F)(F)F)C2)ccc1C(=O)N[C@H]1CC[C@@H](C#N)CC1 (single isomer, unassigned) [Example 3.91, N-(cis-4-cyanocyclohexyl)-2-methyl-4-[(5R or S)-5-[3-chloro-2-fluoro-5-(trifluoromethyl)phenyl]-5-(trifluoromethyl)-4H-isoxazol-3-yl]benzamide] | < 1 | 
19 | Cc1cc(C2=NOC(c3cc(C(F)(F)F)cc(Cl)c3F)(C(F)(F)F)C2)ccc1C(=O)N[C@@H]1CNC1=O (single isomer, unassigned) [Example 3.53, 4-[(5R or S)-5-[3-chloro-2-fluoro-5-(trifluoromethyl)phenyl]-5-(trifluoromethyl)-4H-isoxazol-3-yl]-2-methyl-N-[(3R)-2-oxoazetidin-3-yl]benzamide] | < 1 | 
20 | Cc1cc(C2=NOC(c3cc(C(F)(F)F)cc(Cl)c3F)(C(F)(F)F)C2)ccc1C(=O)NCc1nc(C#N)cs1 (racemic) [Example 3.23, N-[(4-cyanothiazol-2-yl)methyl]-2-methyl-4-[(5RS)-5-[3-chloro-2-fluoro-5-(trifluoromethyl)phenyl]-5-(trifluoromethyl)-4H-isoxazol-3-yl]benzamide] | < 1 | 
